Measured values from PMC6370294 (Journal of biological inorganic chemistry : JBIC : a …, 2018).

Legend:
[1] = target: T1, 5G-XoxF (Methylotuvimicrobium buryatense, UniProt A0A3F2YLY8); experiment: DCPIP dye-linked dehydrogenase assay, A600; type: biochemical; conditions: PMS mediator, DCPIP acceptor; La(III) enzyme; 30 °C; 1.5 μM enzyme
T1 sequence (A0A3F2YLY8 27-617): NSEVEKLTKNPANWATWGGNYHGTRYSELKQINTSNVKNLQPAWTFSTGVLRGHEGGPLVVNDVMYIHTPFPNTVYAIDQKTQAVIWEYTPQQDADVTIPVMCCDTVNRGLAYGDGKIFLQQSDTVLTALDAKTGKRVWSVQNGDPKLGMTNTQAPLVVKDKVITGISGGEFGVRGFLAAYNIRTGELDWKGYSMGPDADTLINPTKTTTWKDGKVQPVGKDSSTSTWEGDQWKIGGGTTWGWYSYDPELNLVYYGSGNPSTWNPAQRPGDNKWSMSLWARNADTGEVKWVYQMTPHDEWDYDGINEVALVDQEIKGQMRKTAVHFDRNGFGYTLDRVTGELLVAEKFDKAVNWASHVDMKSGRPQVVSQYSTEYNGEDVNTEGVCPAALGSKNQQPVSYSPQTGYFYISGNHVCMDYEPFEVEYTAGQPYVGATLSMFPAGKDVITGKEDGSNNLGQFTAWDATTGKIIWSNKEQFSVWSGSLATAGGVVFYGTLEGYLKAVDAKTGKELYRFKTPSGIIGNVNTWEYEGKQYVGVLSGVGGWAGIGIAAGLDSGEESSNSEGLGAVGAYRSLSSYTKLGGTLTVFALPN

[2] = target: XoxF from Methylomicrobium buryatense 5GB1C (Methylomicrobium buryatense 5GB1C); experiment: BLI

Row | Molecule | specific activity [1] | Kd [2]
1 | CO [methanol] | Purified 5G-XoxF exhibits methanol oxidation activity | –
2 | particulate methane monooxygenase from Methylomicrobium buryatense 5GB1C (complex) | – | 50 µM
